“And” between values parts separate entries of the source, which are not always exact repeats. Equal entries are not always repeated. “Also recorded” adds a separate entry of the source. Where two headings read alike, the source gives them in different places.

As usually defined, the EC50 is the concentration at which the effect is half-maximal.

The target of series [1] is T1, hPPARß/δ LBD (Homo sapiens, UniProt Q03181).
T1 construct: cDNA (amino acids 171–441) inserted into pET28a vector; His-tag; made in house; host or cells: Escherichia coli BL21(DE3)
T1 sequence (Q03181 171-441): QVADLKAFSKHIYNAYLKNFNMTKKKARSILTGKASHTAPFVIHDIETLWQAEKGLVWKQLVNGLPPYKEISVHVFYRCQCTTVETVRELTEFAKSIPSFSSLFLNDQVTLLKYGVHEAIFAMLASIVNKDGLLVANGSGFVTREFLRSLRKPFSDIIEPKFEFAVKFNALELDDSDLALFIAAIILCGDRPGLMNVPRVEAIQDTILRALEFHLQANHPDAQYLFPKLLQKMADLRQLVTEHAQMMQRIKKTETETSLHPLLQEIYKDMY
Briefly: Qualitative thermal shift assay (TSA). It counts as binding. To be noted: commercial agonists at 30 μM, 10 μM PPARß/δ, vs apo-PPARß/δ.

Series [2] concerns the target T1, hPPARß/δ LBD. Briefly: ANS fluorescence quenching. It counts as binding. The conditions noted are these: 2 μM hPPARß/δ LBD, 20 μM ANS; for ANS fluorescence quenching / ANS probe displacement (qualitative): compounds 0.3–50 μM, extracts 0.005–1 mg/mL.
For the next series, the system named is 293T cells. Nature of the series: Cytotoxicity: MTT assay and Renilla reporter expression. In kind it is cell-based. To be noted: 1 μM, 1% DMSO as vehicle, compared with 0.1% or 1% DMSO. As to the method: We performed vector normalization with the raw luminescence data to control for differences in transfection efficiency between samples. For vector normalization we calculate luciferase signal/Renilla signal. The assay performance was assessed by plate statistics (signal-to-background ratio, Z′-factor, coefficient of variation) and apparent cytotoxicity was a measure of Renilla luciferase parameters. For Z′-factor calculation, we consider, after vector normalization, the positive controls (GW0742) as signal, and negative controls (DMSO) as background. For cytotoxicity, wells with expression of Renilla reporter five standard deviations (5 × SD) below the mean value of the controls treatment were considered cytotoxic and consequently were disregarded. We considered as hit candidates compounds/extracts with luminescence firefly/Renilla ratio 7 times above the standard deviation of negative controls (DMSO) from the same plate. […]
Additionally, we related the 3-(4,5-dimethyl-2-thia-zoyl)-2,5-diphenyl-2H-tetrazolium bromide (MTT) results with Renilla reporter expression to assess when a test compound/extract might be toxic to the cells, only based on Renilla reporter expression. […] The absorbance was measured at 562 nm using an EnSpire® Multimode Plate Reader (Perkin Elmer). […] Data were analyzed by 2-way ANOVA followed by Sidak's multiple comparison test in GraphPad Prism software. […]
(In general: Formazan colour is commonly taken as a measure of viable cells.)

Series [3] deals with PPARß/δ. The conditions noted are these: read-out: EC50 found in the literature, cited from earlier work.
The target in series [4] is T2, PPARß/δ (Homo sapiens, UniProt Q03181).
T2 construct: expressed in transfected cells; host or cells: 293T cells (ATCC CRL-3216), transient transfection
T2 sequence (Q03181 211-439 limits assumed): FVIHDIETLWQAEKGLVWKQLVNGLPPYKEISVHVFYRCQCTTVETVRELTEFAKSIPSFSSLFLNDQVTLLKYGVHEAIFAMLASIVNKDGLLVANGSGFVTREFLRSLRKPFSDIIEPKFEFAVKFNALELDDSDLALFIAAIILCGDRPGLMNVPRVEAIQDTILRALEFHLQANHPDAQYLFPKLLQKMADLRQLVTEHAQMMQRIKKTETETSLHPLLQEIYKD
Nature of the series: PPARß/δ transactivation assay (Gal4-DBD/PPARß/δ-LBD dual luciferase reporter-gene assay in 293T cells). It counts as cell-based. To be noted: dose-response curves 10^−11–10^−6 M. On the technique in general: Reporter assays use an easily measured gene product as a stand-in for the process of interest.

In the case of `CC(C)(Oc1ccc(CCNC(=O)c2ccc(Cl)cc2)cc1)C(=O)O` [Bezafibrate], the Tm variation at hPPARß/δ LBD [1] was 2.9 ± 0.1 °C and 2.9 °C. In addition, on hPPARß/δ LBD [2], the “ANS fluorescence quenching / ANS probe displacement (qualitative)” value was “did not dislocate the ANS probe; also recorded: did not show a fluorescence quenching”.
As to `Cc1cc(SCc2sc(-c3ccc(C(F)(F)F)c(F)c3)nc2C)ccc1OCC(=O)O` [GW0742], the “cytotoxicity (MTT / Renilla reporter expression)” value in the series on 293T cells is “no cytotoxicity”.
For the molecule `Cc1cc(SCc2sc(-c3ccc(C(F)(F)F)cc3)nc2C)ccc1OCC(=O)O` [GW501516], the 50% effective concentration (EC50) with PPARß/δ [3] (ref [7]) was 1.8 nM.
`CCCc1c(OCCCOc2ccc(OCC(=O)O)cc2)ccc(C(C)=O)c1O` [L-165,041]: the results for the EC50 on PPARß/δ [4] and in the series on PPARß/δ [3] (ref [25]) were 26.4 nM and 125 nM, respectively. Moreover, the Tm variation on hPPARß/δ LBD [1] was 7.3 ± 0.7 °C and 7.3 °C. In addition, the “ANS fluorescence quenching / ANS probe displacement (qualitative)” value on hPPARß/δ LBD [2] is reported as “showed quenching in the ANS fluorescence”. At hPPARß/δ LBD [2] (read-out: apparent dissociation constant (Kdapp)), the Kd stood at 1090 ± 80 nM.
